According to US10131652B2, “Pyrimidinyloxy benzene derivatives as herbicides” (E. I. DU PONT DE NEMOURS AND COMPANY, priority 2014, dated 2018):
Where two headings read alike, the source gives them in different places.

How the values were obtained:
Assay in all cases: Test F pre-/postemergence plant response
Format in all cases: in vivo
[1] = test system: Brazilian crabgrass (Digitaria horizontalis); conditions: Digitaria horizontalis, scale 0 to 100, read-out: Plant response rating, Crabgrass, Brazil
Method in brief: (§1)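 Herbicidal effect judged by eye against controls, scored 0–100 (complete control = 100). Applications: pre-emergence onto seeded silt loam, post-emergence onto 2–18 cm seedlings; greenhouse, 14–21 days.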

[2] = test system: Italian ryegrass (Lolium multiflorum); conditions: Lolium multiflorum, scale 0 to 100, read-out: Plant response rating, Ryegrass, Italian; for pest or weed control at 16 g/ha: 16 g ai/ha; for pest or weed control at 31 g/ha: 31 g ai/ha; for pest or weed control at 125 g/ha: 125 g ai/ha
Method in brief: as §1

corn (Zea mays) = conditions: Zea mays, scale 0 to 100
Method in brief: as §1

[3] = test system: fall panicum (Panicum dichotomiflorum); conditions: Panicum dichotomiflorum, scale 0 to 100, read-out: Plant response rating, Panicum, Fall
Method in brief: as §1

[4] = test system: field bindweed (Convolvulus arvensis); conditions: Convolvulus arvensis, scale 0 to 100, read-out: Plant response rating, Field Bindweed
Method in brief: as §1

[5] = test system: goosegrass (Eleusine indica); conditions: Eleusine indica, pre-emergence, scale 0 to 100, read-out: Plant response rating, Goosegrass
Method in brief: as §1

[6] = test system: hairy beggarticks (Bidens pilosa); conditions: Bidens pilosa, scale 0 to 100, read-out: Plant response rating, Beggarticks
Method in brief: as §1

kochia (Kochia scoparia) = conditions: Bassia scoparia, scale 0 to 100, read-out: Plant response rating, Kochia; for pest or weed control at 16 g/ha: 16 g ai/ha; for pest or weed control at 31 g/ha: 31 g ai/ha; for pest or weed control at 125 g/ha: 125 g ai/ha
Method in brief: as §1

[7] = test system: large (Lg) crabgrass (Digitaria sanguinalis); conditions: Digitaria sanguinalis, pre-emergence, scale 0 to 100, read-out: Plant response rating, Crabgrass, Large
Method in brief: as §1

[8] = test system: nightshade (eastern black nightshade, Solanum ptycanthum); conditions: Solanum, pre-emergence, scale 0 to 100, read-out: Plant response rating, Nightshade
Method in brief: as §1

[9] = test system: ragweed (common ragweed, Ambrosia elatior); conditions: Ambrosia artemisiifolia, scale 0 to 100, read-out: Plant response rating, Ragweed
Method in brief: as §1

soybean (Glycine max) = conditions: Glycine max, scale 0 to 100, read-out: Plant response rating, Soybean
Method in brief: as §1

[10] = test system: surinam grass (Brachiaria decumbens); conditions: Urochloa decumbens, pre-emergence, scale 0 to 100, read-out: Plant response rating, Surinam Grass
Method in brief: as §1

[11] = test system: velvetleaf (Abutilon theophrasti); conditions: Abutilon theophrasti, pre-emergence, scale 0 to 100, read-out: Plant response rating, Velvetleaf
Method in brief: as §1

[12] = test system: wild poinsettia (Euphorbia heterophylla); conditions: Euphorbia heterophylla, scale 0 to 100, read-out: Plant response rating, Poinsettia, Wild
Method in brief: as §1

[13] = test system: yellow nutsedge (Cyperus esculentus); conditions: Cyperus, pre-emergence, scale 0 to 100, read-out: Plant response rating, Nutsedge, Yellow
Method in brief: as §1

[14] = post-emergence, 16 g ai/ha Postemergence
[15] = post-emergence, 31 g ai/ha Postemergence
[16] = post-emergence, 62 g ai/ha Postemergence
[17] = post-emergence, 125 g ai/ha Postemergence
[18] = pre-emergence, 16 g ai/ha Preemergence
[19] = pre-emergence, 31 g ai/ha Preemergence
[20] = pre-emergence, 62 g ai/ha Preemergence
[21] = pre-emergence, 125 g ai/ha Preemergence
[22] = post-emergence, 62 g ai/ha, Postemergence

## Fc1cccc(Oc2ncc(Br)cn2)c1-c1cc(C(F)F)no1 [Compound 145, 5-bromo-2-[2-[3-(difluoromethyl)-5-isoxazolyl]-3-fluorophenoxy]pyrimidine]
[1]; [14]
  pest or weed control at 16 g/ha: 20%
[1]; [15]
  pest or weed control at 31 g/ha: 20%
[1]; [16]
  pest or weed control at 62 g/ha: 40%
[1]; [17]
  pest or weed control at 125 g/ha: 50%
[1]; [18]
  pest or weed control at 16 g/ha: 5%
[1]; [19]
  pest or weed control at 31 g/ha: 80%
[1]; [20]
  pest or weed control at 62 g/ha: 95%
[1]; [21]
  pest or weed control at 125 g/ha: 100%
[2]; post-emergence, Postemergence
  pest or weed control at 16 g/ha: 10%
  pest or weed control at 31 g/ha: 5%
  pest or weed control at 125 g/ha: 15%
[2]; [22]
  pest or weed control at 62 g/ha: 10%
[2]; pre-emergence, Preemergence
  pest or weed control at 16 g/ha: 25%
  pest or weed control at 31 g/ha: 20%
  pest or weed control at 125 g/ha: 90%
  pest or weed control at 62 g/ha: 40%
Corn (Zea mays); [14]
  Corn plant response rating (crop injury, 0 = no effect, 100 = complete kill) at 16 g/ha: 5%
Corn (Zea mays); [15]
  Corn plant response rating (crop injury, 0 = no effect, 100 = complete kill) at 31 g/ha: 10%
Corn (Zea mays); [16]
  Corn plant response rating (crop injury, 0 = no effect, 100 = complete kill) at 62 g/ha: 20%
Corn (Zea mays); [17]
  Corn plant response rating (crop injury, 0 = no effect, 100 = complete kill) at 125 g/ha: 20%
Corn (Zea mays); [18]
  Corn plant response rating (crop injury, 0 = no effect, 100 = complete kill) at 16 g/ha: 0%
Corn (Zea mays); [19]
  Corn plant response rating (crop injury, 0 = no effect, 100 = complete kill) at 31 g/ha: 0%
Corn (Zea mays); [20]
  Corn plant response rating (crop injury, 0 = no effect, 100 = complete kill) at 62 g/ha: 40%
Corn (Zea mays); [21]
  Corn plant response rating (crop injury, 0 = no effect, 100 = complete kill) at 125 g/ha: 60%
[3]; [14]
  pest or weed control at 16 g/ha: 10%
[3]; [15]
  pest or weed control at 31 g/ha: 10%
[3]; [16]
  pest or weed control at 62 g/ha: 50%
[3]; [17]
  pest or weed control at 125 g/ha: 80%
[3]; [18]
  pest or weed control at 16 g/ha: 65%
[3]; [19]
  pest or weed control at 31 g/ha: 80%
[3]; [21]
  pest or weed control at 125 g/ha: 100%
[3]; pre-emergence, Preemergence
  pest or weed control at 62 g/ha: 95%
[4]; [14]
  pest or weed control at 16 g/ha: 70%
[4]; [15]
  pest or weed control at 31 g/ha: 75%
[4]; [16]
  pest or weed control at 62 g/ha: 80%
[4]; [17]
  pest or weed control at 125 g/ha: 90%
[4]; [18]
  pest or weed control at 16 g/ha: 0%
[4]; [19]
  pest or weed control at 31 g/ha: 50%
[4]; [20]
  pest or weed control at 62 g/ha: 65%
[4]; [21]
  pest or weed control at 125 g/ha: 95%
[5]; 16 g ai/ha Preemergence
  pest or weed control at 16 g/ha: 0%
[5]; 31 g ai/ha Preemergence
  pest or weed control at 31 g/ha: 70%
[5]; 125 g ai/ha Preemergence
  pest or weed control at 125 g/ha: 95%
[5]; Preemergence
  pest or weed control at 62 g/ha: 80%
[6]; [14]
  pest or weed control at 16 g/ha: 55%
[6]; [15]
  pest or weed control at 31 g/ha: 50%
[6]; [16]
  pest or weed control at 62 g/ha: 65%
[6]; [17]
  pest or weed control at 125 g/ha: 70%
[6]; [18]
  pest or weed control at 16 g/ha: 0%
[6]; [19]
  pest or weed control at 31 g/ha: 35%
[6]; [20]
  pest or weed control at 62 g/ha: 30%
[6]; [21]
  pest or weed control at 125 g/ha: 25%
Kochia (Kochia scoparia); post-emergence, Postemergence
  pest or weed control at 16 g/ha: 98%
  pest or weed control at 31 g/ha: 100%
  pest or weed control at 125 g/ha: 100%
Kochia (Kochia scoparia); [22]
  pest or weed control at 62 g/ha: 95%
Kochia (Kochia scoparia); pre-emergence, Preemergence
  pest or weed control at 16 g/ha: 75%
  pest or weed control at 31 g/ha: 98%
  pest or weed control at 125 g/ha: 100%
  pest or weed control at 62 g/ha: 100%
[7]; 16 g ai/ha Preemergence
  pest or weed control at 16 g/ha: 10%
[7]; 31 g ai/ha Preemergence
  pest or weed control at 31 g/ha: 95%
[7]; 62 g ai/ha Preemergence
  pest or weed control at 62 g/ha: 98%
[7]; 125 g ai/ha Preemergence
  pest or weed control at 125 g/ha: 100%
[8]; 16 g ai/ha Preemergence
  pest or weed control at 16 g/ha: 90%
[8]; 31 g ai/ha Preemergence
  pest or weed control at 31 g/ha: 80%
[8]; 125 g ai/ha Preemergence
  pest or weed control at 125 g/ha: 98%
[8]; Preemergence
  pest or weed control at 62 g/ha: 98%
[9]; [14]
  pest or weed control at 16 g/ha: 30%
[9]; [15]
  pest or weed control at 31 g/ha: 50%
[9]; [16]
  pest or weed control at 62 g/ha: 60%
[9]; [17]
  pest or weed control at 125 g/ha: 70%
[9]; [18]
  pest or weed control at 16 g/ha: 0%
[9]; [19]
  pest or weed control at 31 g/ha: 70%
[9]; [21]
  pest or weed control at 125 g/ha: 80%
[9]; pre-emergence, Preemergence
  pest or weed control at 62 g/ha: 65%
Soybean (Glycine max); [14]
  plant injury at 16 g/ha: 95%
Soybean (Glycine max); [15]
  plant injury at 31 g/ha: 95%
Soybean (Glycine max); [16]
  plant injury at 62 g/ha: 95%
Soybean (Glycine max); [17]
  plant injury at 125 g/ha: 95%
Soybean (Glycine max); [18]
  plant injury at 16 g/ha: 0%
Soybean (Glycine max); [19]
  plant injury at 31 g/ha: 0%
Soybean (Glycine max); [21]
  plant injury at 125 g/ha: 40%
Soybean (Glycine max); pre-emergence, Preemergence
  plant injury at 62 g/ha: 15%
[10]; 16 g ai/ha Preemergence
  pest or weed control at 16 g/ha: 0%
[10]; 31 g ai/ha Preemergence
  pest or weed control at 31 g/ha: 0%
[10]; 125 g ai/ha Preemergence
  pest or weed control at 125 g/ha: 25%
[10]; Preemergence
  pest or weed control at 62 g/ha: 0%
[11]; 16 g ai/ha Preemergence
  pest or weed control at 16 g/ha: 35%
[11]; 31 g ai/ha Preemergence
  pest or weed control at 31 g/ha: 98%
[11]; 125 g ai/ha Preemergence
  pest or weed control at 125 g/ha: 100%
[11]; Preemergence
  pest or weed control at 62 g/ha: 100%
[12]; [14]
  pest or weed control at 16 g/ha: 70%
[12]; [15]
  pest or weed control at 31 g/ha: 75%
[12]; [16]
  pest or weed control at 62 g/ha: 80%
[12]; [17]
  pest or weed control at 125 g/ha: 80%
[12]; [18]
  pest or weed control at 16 g/ha: 0%
[12]; [19]
  pest or weed control at 31 g/ha: 0%
[12]; [21]
  pest or weed control at 125 g/ha: 65%
[12]; pre-emergence, Preemergence
  pest or weed control at 62 g/ha: 65%
[13]; 16 g ai/ha Preemergence
  pest or weed control at 16 g/ha: 0%
[13]; 31 g ai/ha Preemergence
  pest or weed control at 31 g/ha: 0%
[13]; 125 g ai/ha Preemergence
  pest or weed control at 125 g/ha: 0%
[13]; Preemergence
  pest or weed control at 62 g/ha: 0%
